Values quoted from earlier work, collected in paper PMC4191920 (Journal of molecular biology, 2014).

Tested on: fibril formation
Settings: at pH 7.4

[Nα-methyl-β-Ala26]Aβ42
effect on fibril formation: inhibit fibril formation
